One experiment deals with KRAS-WT (Homo sapiens, UniProt P01116). Put plainly: SOS-catalyzed nucleotide exchange assay (Procedure A, TR-FRET), KRAS-WT. Particulars: nucleotide exchange, read-out: KRAS WT GNE IC50. Type of experiment: biochemical. In a few lines: (§1)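 Signal ratio (520/495 nm, excitation 340 nm) reports Bodipy-GDP retention on biotinylated RAS after SOS-catalyzed exchange with 3 mM GTP. SOS was 40 nM, except 160 nM for G12V. Room-temperature exchange lasted 60 min (90 min for G12V), following a 60 min compound preincubation.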
For orientation: TR-FRET usually uses a lanthanide donor and a delayed reading to cut background.

Experiment [1] deals with KRAS-G12C (C51S/C80L/C118S) (Homo sapiens, UniProt P01116, C118S/C51S/C80L/G12C). Put plainly: SOS-catalyzed nucleotide exchange assay (Procedure A, TR-FRET), KRAS-G12C. Format: biochemical. The conditions noted are these: nucleotide exchange, Procedure A; read-out: KRAS G12C GNE IC50. In a few lines:
as §1

Another experiment concerns the target KRAS-G12D (Homo sapiens, UniProt P01116, G12D). Briefly: SOS-catalyzed nucleotide exchange assay (Procedure A, TR-FRET), KRAS-G12D. Format: biochemical. Particulars: nucleotide exchange, read-out: KRAS G12D GNE IC50. In a few lines:
as §1

For another experiment, the target named is KRAS-G12V (Homo sapiens, UniProt P01116, G12V). Briefly: SOS-catalyzed nucleotide exchange assay (Procedure A, TR-FRET), KRAS-G12V. Type of experiment: biochemical. The conditions noted are these: nucleotide exchange, read-out: KRAS G12V GNE IC50. In a few lines:
as §1

The next experiment concerns the target KRAS-G13D (Homo sapiens, UniProt P01116, G13D). Briefly: SOS-catalyzed nucleotide exchange assay (Procedure A, TR-FRET), KRAS-G13D. Type of experiment: biochemical. Particulars: nucleotide exchange, Procedure A; read-out: KRAS G13D GNE IC50.
Another experiment concerns the target HRAS (Homo sapiens, UniProt P01112). Briefly: SOS-catalyzed nucleotide exchange assay (Procedure A, TR-FRET), HRAS. Type of experiment: biochemical. Particulars: read-out: HRAS GNE IC50. The text has this: Procedure for SOS-Catalyzed Nucleotide Exchange Assay for KRAS-WT, G12C/D/V, G13D, HRAS, and NRAS (Procedure A)
Recombinant KRAS-G12C protein used in this assay has an additional triple mutation (C51S/C80L/C118S). Whereas KRAS-WT, G12D/V, G13D, HRAS and NRAS are in context of their WT protein sequence background. Specifically, the SOS-catalyzed nucleotide exchange assay utilizes a preformed TR-FRET complex containing a specific biotinylated RAS protein (KRAS-WT, G12C/V/D, G13D, HRAS, NRAS; described above) with Bodipy-GDP, and Terbium-streptavidin. Compounds are preincubated with this complex for 60 minutes. Subsequently, recombinant human SOS protein and unlabeled GTP are added to initiate the exchange reaction. Small molecule inhibitors stabilize the Bodipy-GDP complex whereas the untreated protein rapidly exchanges Bodipy-GDP for unlabeled GTP resulting in reduced TR-FRET signal.
To assemble the preformed TR-FRET complexes, each biotinylated RAS protein is diluted to 2 μM in an EDTA Buffer (20 mM HEPES pH 7.5, 50 mM sodium chloride, 10 mM EDTA, and 0.01% Tween) and incubated at room temperature for one hour. This mixture is then further diluted to 90 nM in an Assay Buffer (20 mM HEPES pH 7.5, 150 mM sodium chloride, 10 mM magnesium chloride, and 0.005% Tween) containing 15 nM of Terbium-Streptavidin (Invitrogen, catalog #PV3577) and 900 nM of Bodipy-GDP (Invitrogen, catalog #G22360) and incubated at room temperature for six hours. It should be noted that this preformed TR-FRET complex for each of the RAS protein were made ahead of time, aliquoted and stored at −80° C. until the day of the experiment.
Each test compound (10 mM stock in DMSO) is diluted in DMSO to make a final-10-point, 3-fold dilution and is acoustically dispensed into a 384-well assay plate (Corning, catalog #3820) using an Echo 550 (Labcyte). Each well of the assay plate receives 3 μL of a specific 3×RAS preformed TR-FRET complex and 3 μL of Assay Buffer and is incubated at room temperature for 60 minutes (preincubation time). Each well then receives 3 μL of 3×recombinant human SOS protein and GTP (Sigma, G8877) in Assay Buffer and is incubated at room temperature for 30 minutes (G13D), 60 minutes (KRAS WT/G12C/D, H/NRAS) or 90 minutes for G12V. The final reaction in each well of 9 μL consists of 3 mM GTP, specific Ras and SOS proteins in the following concentrations: KRAS-G12C/SOS=3 nM/40 nM, KRAS-WT and G12D/SOS=1 nM/40 nM, KRAS-G12V/SOS=1.25 nM/160 nM. KRAS-G13D/SOS=1.25 nM/0 nM, HRAS and NRAS=1.25 nM/40 nM.
The time-resolved fluorescence resonance energy transfer (TR-FRET) signal is measured on an Envision (PerkinElmer) plate reader: Excitation filter=340 nm; emission 1=495 nm; emission2=520 nm; dichroic mirror=D400/D505; delay time=[…]. The signal of each well is determined as the ratio of the emission at 520 nm to that at 495 nm. Percent effect of each well is determined after normalization to control wells containing DMSO (no effect) or a saturating concentration of inhibitor (max effect). The apparent effect as a function of compound concentration is fit to a four-parameter logistic equation.

The next experiment deals with MKN-1 cells. Put plainly: Cellular phospho-ERK assay, MKN-1 cells (amplified wild-type KRAS). Format: cell-based. Particulars: Homo sapiens, read-out: MKN1 pERK IC50. In a few lines:
(§2)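 Overnight-plated cells on collagen received test compound (up to 30 μM final, threefold steps, ten concentrations) for two hours. After lysis at room temperature, phosphorylated and total ERK were quantified together by Alpha SureFire, and IC50 is based on the phospho-to-total signal ratio.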

In a further experiment the test system is AsPC-1 cells. Put plainly: Cellular phospho-ERK assay, AsPC-1 cells (homozygous KRAS-G12D). Format: cell-based. The conditions noted are these: Homo sapiens, ASPC1, 2 h, read-out: AsPC1 pERK IC50. In a few lines:
as §2

In another experiment the test system is SW620 cells. Briefly: Cellular phospho-ERK assay, SW620 cells (homozygous KRAS-G12V). The conditions noted are these: Homo sapiens, read-out: SW620 pERK IC50. Format: cell-based. In a few lines: as §2
[2] abbreviates: SW-620, 2 hours compound incubation.

Each structure is given as a SMILES string. Where two headings read alike, the source gives them in different places.

Sequence of KRAS-G12D (P01116 with tags, fused parts or gaps isoform P01116-2 G12D): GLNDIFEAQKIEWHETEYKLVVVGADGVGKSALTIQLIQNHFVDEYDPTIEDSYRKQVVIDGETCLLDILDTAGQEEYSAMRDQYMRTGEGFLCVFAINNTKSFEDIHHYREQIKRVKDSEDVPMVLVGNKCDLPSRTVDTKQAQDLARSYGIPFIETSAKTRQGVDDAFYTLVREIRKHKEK
Sequence of KRAS-G13D (P01116 with tags, fused parts or gaps isoform P01116-2 G13D): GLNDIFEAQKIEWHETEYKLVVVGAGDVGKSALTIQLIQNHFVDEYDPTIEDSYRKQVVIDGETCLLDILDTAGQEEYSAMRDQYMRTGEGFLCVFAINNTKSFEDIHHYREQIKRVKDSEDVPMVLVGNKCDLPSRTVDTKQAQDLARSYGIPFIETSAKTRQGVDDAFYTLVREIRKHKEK
Sequence of KRAS-G12V (P01116 with tags, fused parts or gaps isoform P01116-2 G12V): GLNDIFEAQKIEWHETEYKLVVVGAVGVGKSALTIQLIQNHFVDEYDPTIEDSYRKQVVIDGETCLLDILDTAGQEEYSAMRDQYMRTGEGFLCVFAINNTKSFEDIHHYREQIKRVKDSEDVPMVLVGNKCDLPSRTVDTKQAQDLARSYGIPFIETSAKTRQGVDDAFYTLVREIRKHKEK
Sequence of KRAS-G12C (C51S/C80L/C118S) (P01116 with tags, fused parts or gaps isoform P01116-2 G12C/C51S/C80L/C118S): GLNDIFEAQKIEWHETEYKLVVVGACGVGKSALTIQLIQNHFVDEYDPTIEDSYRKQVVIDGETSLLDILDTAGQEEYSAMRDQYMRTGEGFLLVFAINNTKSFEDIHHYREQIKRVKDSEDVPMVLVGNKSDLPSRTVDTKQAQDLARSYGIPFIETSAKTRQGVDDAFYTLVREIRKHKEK
Sequence of HRAS (P01112 with tags, fused parts or gaps): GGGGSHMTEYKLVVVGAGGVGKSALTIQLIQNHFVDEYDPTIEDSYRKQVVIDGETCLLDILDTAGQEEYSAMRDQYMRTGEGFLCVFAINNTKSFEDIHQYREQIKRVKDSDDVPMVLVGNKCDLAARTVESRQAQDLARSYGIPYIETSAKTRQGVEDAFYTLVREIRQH
Sequence of KRAS-WT (P01116 with tags, fused parts or gaps isoform P01116-2): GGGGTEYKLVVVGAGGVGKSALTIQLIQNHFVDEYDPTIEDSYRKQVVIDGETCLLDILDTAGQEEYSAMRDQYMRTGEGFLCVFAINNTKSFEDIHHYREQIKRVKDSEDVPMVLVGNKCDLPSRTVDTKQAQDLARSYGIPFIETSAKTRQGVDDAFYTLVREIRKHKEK

With `C[C@H](N(C)C)[C@@]1(COc2nc(N3CCOC[C@@](C)(O)C3)c3c(n2)sc2c(-c4c(C5CC5)c(Cl)cc5[nH]ncc45)nccc23)CC1(F)F` [Ex-215, (6S)-4-(8-(6-chloro-5-cyclopropyl-1H-indazol-4-yl)-2-(((R)-1-((S)-1-(dimethylamino)-ethyl)-2,2-difluoro-cyclopropyl)meth-oxy)pyrido[4′,3′: 4,5]thieno[2,3-d]pyrimidin-4-yl)-6-methyl-1,4-oxaze-pan-6-ol], the half-inhibitory concentration (IC50) on KRAS-WT came out at 0.016 µM; in experiment [1], 0.105 µM; at KRAS-G12D, 0.00375 µM; on KRAS-G12V, 0.0209 µM; on KRAS-G13D, 0.0389 µM; on HRAS, 1.61 µM. The IC50 worked out at 0.0326 µM with MKN-1 cells (2 hours compound incubation), 0.0559 µM with AsPC-1 cells (2 hours compound incubation) and 0.023 µM in the experiment on SW620 cells (setting [2]).
Turning to `C#Cc1c(F)sc2cc3[nH]ncc3c(-c3nccc4c3sc3nc(OC[C@@]56CCCN5C[C@H](F)C6)nc(N5CCOC[C@@](C)(O)C5)c34)c12` [Ex-164], the IC50 on KRAS-WT came to 0.00206 µM; in experiment [1] it was 0.0351 µM; on KRAS-G12D it was 0.00149 µM; at KRAS-G12V it was 0.00315 µM; on KRAS-G13D, 0.00661 µM; on HRAS, 1.89 µM. Further, the values for the IC50 with MKN-1 cells (2 hours compound incubation), in the experiment on AsPC-1 cells (2 hours compound incubation) and with SW620 cells (setting [2]) were 0.0146 µM, 0.00576 µM and 0.00276 µM, respectively.
Take `C#Cc1cccc2cc3[nH]ncc3c(-c3nccc4c3sc3nc(OC[C@@]56CCCN5C[C@H](F)C6)nc(N5CCOC[C@@](C)(O)C5)c34)c12` [Ex-171, (6S)-4-(8-(5-ethynyl-1H-benzo[f]indazol-4-yl)-2-(((2R,7aS)-2-fluorotetrahydro-1H-pyrrolizin-7a(5H)-yl)methoxy)pyrido[4′,3′:4,5]thieno[2,3-d]pyrimidin-4-yl)-6-methyl-1,4-oxazepan-6-ol]: the IC50 was determined as 0.00438 µM at KRAS-WT; 0.0387 µM in experiment [1]; 0.00165 µM on KRAS-G12D; 0.00509 µM on KRAS-G12V; 0.00503 µM on KRAS-G13D; 5.13 µM at HRAS. Moreover, the IC50 was found to be 0.0242 µM in the experiment with MKN-1 cells (2 hours compound incubation), 0.0123 µM with AsPC-1 cells (2 hours compound incubation) and 0.0105 µM with SW620 cells (setting [2]).
As to `C[C@H]1CCN1C[C@@]1(COc2nc(N3CCOC[C@@](C)(O)C3)c3c(n2)sc2c(-c4c(C5(F)CC5)c(Cl)cc5[nH]ncc45)nccc23)CC1(F)F` [Ex-253, (6S)-4-(8-(6-chloro-5-(1-fluorocyclopropyl)-1H-indazol-4-yl)-2-(((R)-2,2-difluoro-1-(((S)-2-methylazetidin-1-yl)methyl)cyclopropyl)metho-xy)pyrido[4′,3′:4,5]thieno[2,3-d]pyrimidin-4-yl)-6-methyl-1,4-oxazepan-6-ol], the IC50 stood at 0.0201 µM at KRAS-WT; 0.0152 µM in experiment [1]; 0.0041 µM on KRAS-G12D; 0.0159 µM at KRAS-G12V; 0.0184 µM at KRAS-G13D; 1.06 µM on HRAS. Besides, the values for the IC50 in the experiment on MKN-1 cells (2 hours compound incubation), in the experiment with AsPC-1 cells (2 hours compound incubation) and in the experiment with SW620 cells (setting [2]) were 0.0497 µM, 0.0576 µM and 0.0496 µM, respectively.
Consider `CN1CCC[C@@]2(COc3nc(N4CCOC[C@@](C)(O)C4)c4c(n3)sc3c(-c5c(C6(F)CC6)c(Cl)cc6[nH]ncc56)nccc34)CCC[C@@H]12` [Ex-268, (6S)-4-(8-(6-chloro-5-(1-fluorocyclopropyl)-1H-indazol-4-yl)-2-(((4aS,7aR)-1-methyloctahydro-4aH-cyclopenta[b]pyridin-4a-yl)methoxy)pyri-do[4′,3′:4,5]thi-eno[2,3-d]pyrimidin-4-yl)-6-methyl-1,4-oxazepan-6-ol], for which the IC50 at KRAS-WT was found to be 0.00572 µM; in experiment [1], 0.0875 µM; on KRAS-G12D, 0.00247 µM; at KRAS-G12V, 0.00579 µM; at KRAS-G13D, 0.0103 µM; on HRAS, 4.19 µM. In addition, the values for the IC50 in the experiment with MKN-1 cells (2 hours compound incubation), in the experiment with AsPC-1 cells (2 hours compound incubation) and in the experiment on SW620 cells (setting [2]) were 0.0307 µM, 0.056 µM and 0.0276 µM, respectively.
Consider `C[C@@]1(O)COCCN(c2nc(OC[C@]3(CN4C[C@H]5CCCO[C@H]5C4)CC3(F)F)nc3sc4c(-c5c(C6(F)CC6)c(Cl)cc6[nH]ncc56)nccc4c23)C1` [Ex-255, (6S)-4-(8-(6-chloro-5-(1-fluorocyclopropyl)-1H-indazol-4-yl)-2-(((R)-2,2-difluoro-1-(((4aR,7aR)-hexahydropyrano[2,3-c]pyrrol-6(2H)-yl)methyl)cyclopropyl)metho-xy)pyrido[4′,3′:4,5]thieno[2,3-d]pyrimidin-4-yl)-6-methyl-1,4-oxazepan-6-o1], for which the IC50 is 0.0185 µM on KRAS-WT; 0.0867 µM in experiment [1]; 0.00479 µM on KRAS-G12D; 0.0149 µM on KRAS-G12V; 0.0128 µM at KRAS-G13D; 1.39 µM at HRAS. Further, the IC50 turned out to be 0.0253 µM with MKN-1 cells (2 hours compound incubation), 0.0933 µM with AsPC-1 cells (2 hours compound incubation) and 0.0401 µM with SW620 cells (setting [2]).
Turning to `CC1CCc2cc3[nH]ncc3c(-c3nccc4c3sc3nc(OC[C@@]56CCCN5C[C@H](F)C6)nc(N5CCOC[C@@](C)(O)C5)c34)c21` (single isomer, unassigned) [Ex-103], the IC50 turned out to be 0.00628 µM at KRAS-WT; 0.0181 µM in experiment [1]; 0.00212 µM at KRAS-G12D; 0.00872 µM on KRAS-G12V; 0.00451 µM on KRAS-G13D; 8.01 µM on HRAS. Besides, the IC50 turned out to be 0.0309 µM with MKN-1 cells (amplified wild-type KRAS, 2 hours); 0.0263 µM in the experiment with AsPC-1 cells (KRAS-G12D, 2 hours); 0.0199 µM with SW620 cells (SW-620, KRAS-G12V, 2 hours).

The IC50 is the concentration that inhibits the measured activity by half.

(Values after patent US20260176289A1, “SMALL MOLECULE INHIBITORS OF KRAS PROTEINS” (Merck Sharp & Dohme LLC, priority 2022, published 2026).)
